# Paper PMC9022229, “Induction of Paraptosis by Cyclometalated Iridium Complex-Peptide Hybrids and CGP37157 via a Mitochondrial Ca^2+ Overload Triggered by Membrane Fusion between Mitochondria and the Endoplasmic Reticulum” (Biochemistry, 2022)
# Read-outs that look alike come from different tables or passages of the source. Residues, ends and D or L forms follow the SMILES beside them. *: point of attachment. X1 = O=C(COc1ccc(-c2ccccn2)cc1)NCCCCCCCCN*
# Experiments:
# Assay type in all cases: cell-based
# mitofusin 2 (MFN2) = experiment: Western blot analysis of MFN2 in Jurkat cells
# Method: In a 1.5 mL Eppendorf tube, Jurkat cells (1.0 × 10^6 cells) were incubated in the presence of 4 ([…]), CGP37157 (100 μM for 0–24 h or 0–100 μM for 12 h), and celastrol (0–10 μM for 24 h or 1 μM for 0–24 h) at 37 °C under 5% CO2. After the cells had been washed twice with PBS, the proteins were extracted by using RIPA buffer (Nacalai Tesque) and quantified using a Pierce BCA Protein Assay Kit (Thermo Scientific). Proteins (7.5 μg/well) for MFNs and DRP1 and proteins (5.0 μg/well) for GAPDH were used for sodium dodecyl sulfate–polyacrylamide gel electrophoresis (SDS–PAGE) (7.5% for MFNs and DRP1 and 10% for GAPDH) (Bio-Rad). After SDS–PAGE, the proteins were transferred to a polyvinylidene fluoride membrane (Merck Millipore) by using a semi dry blotter (Bio-Rad). The membrane was blocked with Blocking One solution (Nacalai Tesque) for 30 min at room temperature. After being blocked, the membrane was washed three times with 1× TBST and treated with primary antibodies overnight (at a dilution of 1/1000 for MFNs and DRP1 or 1/2000 for GAPDH) in a signal enhancer HIKARI-solution A (Nacalai Tesque). The membrane was washed three times with 1× TBST and treated with the anti-mouse or anti-rabbit IgG HRP-conjugated secondary antibody (at a dilution of 1/4000 for MFNs and DRP1 or 1/10000 for GAPDH) in 1× TBST for 60 min at room temperature. The protein signal was spotted with a Chemi-Lumi One Ultra solution (Nacalai Tesque) using the ChemiDoc MP system (Bio-Rad). […]
# Jurkat cells [1] = experiment: Mitochondrial Ca2+ by flow cytometry with Rhod-2
# Method: Other characteristic phenomena of paraptosis such as a mitochondrial Ca^2+ overload and loss of mitochondrial membrane potential (ΔΨm) induced by CGP37157 were also examined. Intracellular Ca^2+ concentrations were measured by flow cytometry using red-emitting Ca^2+ probes, Rhod-2 (a mitochondrial Ca^2+ probe) and Rhod-4 (a cytosolic Ca^2+ probe). Jurkat cells were stained with Rhod-2/AM or Rhod-4/AM (at 5 μM) and then treated with CGP37157 (100 μM) or 4 (5 μM) for a given period of incubation, immediately after which the emission intensity of Rhod-2 and Rhod-4 was measured by flow cytometry. […]
# In a 1.5 mL Eppendorf tube, Jurkat cells (2.0 × 10^5 cells) were incubated in the presence of Rhod-2/AM (5 μM, 100 μL) or Rhod-4/AM (5 μM, 100 μL) in 10% FBS/RPMI 1640 medium for 30 min at 37 °C under 5% CO2 and then treated with 4 (5 μM, 0–30 min) or CGP37157 (100 μM, 0–6 h) in 10% FBS/RPMI 1640 medium (100 μL) for 30 min at 37 °C under 5% CO2. Immediately after the treatment, 10% FBS/RPMI 1640 medium (300 μL) was added to the cells and the samples were analyzed on a flow cytometer (FACSCalibur cytometer, Becton). The data were analyzed on FlowJo software (FlowJo, LCC).
# Jurkat cells [2] = test system: Jurkat cells
# Method: The cytotoxicity of 4 against Jurkat cells was evaluated by conducting MTT assays [MTT = 3-(4,5-dimethyl-2-thiazolyl)-2,5-diphenyl-2H-tetrazolium bromide] as a function of time and by microscopic observations to determine the appropriate conditions for mechanistic studies of paraptosis (Figure 1).
# It was reported that an inhibitor of a mitochondrial Na^+/Ca^2+ exchanger (mNCX), which functions to export Ca^2+ from the mitochondrial matrix to the cytosol in exchange with cytosolic Na^+, affects the mitochondrial Ca^2+ concentration.[60]−[63],[88]−[90] We therefore examined the cytotoxicity of CGP37157 (Chart 2), a typical inhibitor of mNCX,[60],[61],[88]−[90] against Jurkat cells by means of an MTT assay. […] For microscopic observations, Jurkat cells were treated with CGP37157 (100 μM) for 0–24 h, and cell death was observed after treatment with CGP37157 for 12–24 h, by staining with propidium iodide (PI) (Figure 3B).
# HeLa S3 and A549 cells (2.0 × 10^4 cells/well) were seeded on a 96-well plate (BD Falcon) in cell culture medium and incubated overnight at 37 °C under 5% CO2. Jurkat (2.0 × 10^4 cells/well), HeLa S3, and A549 cells were treated with 4 (0–25 μM) and CGP37157 (0–100 μM) for 1, 3, 6, 12, and 24 h at 37 °C under 5% CO2, after which a MTT solution in PBS (0.5%, 10 μL) was added to each well.
# Statistical analyses of MTT assays were performed by using Graphpad Prism 9 software with the Student’s t test. Data are presented as means ± the standard deviation of three independent experiments, and a P of <0.05 was considered to indicate a statistically significant difference.
smiles,measurement,setting,value
NCCCC[C@H](NC(=O)[C@H](CCCCN)NC(=O)[C@@H](N)CCCCN)C(=O)NCC(=O)NCC(=O)NCCCCCCCCNC(=O)COc1ccc(-c2ccccn2)cc1 [compound 4] (H-KKKGG-X1),Expression level of MFN2 (Figure 11A),"mitofusin 2 (MFN2); 4 at 5 μM, 30 min to 1 h",weakly changed
same,MFN2 band intensity relative to absence of compound,"mitofusin 2 (MFN2); Figure S8A, 4 at 1 µM, 1 h per legend",1.3
same,MFN2 band intensity relative to absence of compound,"mitofusin 2 (MFN2); Figure S8A, 4 at 2.5 µM, 1 h per legend",1.3
same,MFN2 band intensity relative to absence of compound,"mitofusin 2 (MFN2); Figure S8A, 4 at 5 µM, 1 h per legend",1.4
same,MFN2 band intensity relative to absence of compound,"mitofusin 2 (MFN2); Figure S8A, 4 at 10 µM, 1 h per legend",1.4
same,MFN2 band intensity relative to absence of compound,"mitofusin 2 (MFN2); Figure S8A, 4 at 20 µM, 1 h per legend",1.3
same,Emission intensity of Rhod-2 (mitochondrial Ca2+),"Jurkat cells [1]; 4 at 5 μM, 10–30 min after treatment",enhanced
same,EC50,Jurkat cells [2]; 1 h,3200 nM
same,EC50,Jurkat cells [2]; 3 h,2000 nM
same,EC50,Jurkat cells [2]; 6 h,1500 nM
same,EC50,Jurkat cells [2]; 12 h,1200 nM
same,EC50,Jurkat cells [2]; 24 h,1700 nM
O=C1CSC(c2ccccc2Cl)c2cc(Cl)ccc2N1 (stereo not drawn) [CGP37157],Expression level of MFN2 (Figure 11B),"mitofusin 2 (MFN2); CGP37157 100 μM, 1–6 h",weakly changed
same,MFN2 band intensity relative to absence of compound,"mitofusin 2 (MFN2); Figure S8B, CGP37157 10 µM, 12 h",1.1
same,MFN2 band intensity relative to absence of compound,"mitofusin 2 (MFN2); Figure S8B, CGP37157 20 µM, 12 h",1.6
same,MFN2 band intensity relative to absence of compound,"mitofusin 2 (MFN2); Figure S8B, CGP37157 50 µM, 12 h",1.4
same,MFN2 band intensity relative to absence of compound,"mitofusin 2 (MFN2); Figure S8B, CGP37157 80 µM, 12 h",1.2
same,MFN2 band intensity relative to absence of compound,"mitofusin 2 (MFN2); Figure S8B, CGP37157 100 µM, 12 h",0.95
same,Emission intensity of Rhod-2 (mitochondrial Ca2+),"Jurkat cells [1]; CGP37157 100 μM, 6 h after treatment",enhanced
same,EC50,"Jurkat cells [2]; 12 h incubation, 10% FBS/RPMI 1640, 37 °C, 5% CO2, read-out: EC50 (MTT, Jurkat cells)",74000 nM
same,EC50,"Jurkat cells [2]; 24 h incubation, 10% FBS/RPMI 1640, 37 °C, 5% CO2, read-out: EC50 (MTT, Jurkat cells)",55000 nM
